*1 amine or outer side, *2 acyl side, *3 side chain or, on linkers, in order; H or OH if unused. Where a SMILES comes first, the peptide text is derived from it. [ ]: non-standard residue; d: D form. The star is where a group is joined. Doxorubicin(3'-N) = COc1cccc2c1C(=O)c1c(O)c3c(c(O)c1C2=O)C[C@@](O)(C(=O)CO)C[C@@H]3O[C@H]1C[C@H](N*)[C@H](O)[C@H](C)O1; Hexanoyl(6-maleimido) = O=C1C=CC(=O)N1CCCCCC(=O)*; PABC = O=C(OCc1ccc(N[*:1])cc1)[*:2]
How the values were obtained:
[1] = Pharmacokinetic analysis in cynomolgus monkeys; assay type: in vivo; settings: intravenous, equivalent to 1 mg/kg doxorubicin
Protocol: Blood samples were collected at 15, 30, 45, 60, and 90 min intervals, and then again at 2, 3, 4, 6, 8, 12, 24, 48, 72, 96, 120, 144, and 168 h. The blood samples were stabilized with sodium citrate and then cryocentrifuged at 2000×g for 15 min to obtain plasma. 200 μl of the plasma sample was added to a 96-well black microplate and the fluorescence of doxorubicin was measured at 485/590 nm. The reference was fresh plasma and the fluorescence was measured in the same manner.

[2] = Pharmacokinetic analysis in rats; assay type: in vivo, Sprague-Dawley rats; settings: equivalent to 1 mg/kg doxorubicin; for half-life: Sprague-Dawley, rat, plasma, iv, 1 mg/kg
Protocol: Blood samples were collected at 5, 15, 30, 60, and 90 min intervals and then again at 2, 4, 8, 12, 24, 48, 72, 96, and 144 h. The blood samples were stabilized with sodium citrate and then cryocentrifuged at 2000×g for 15 min to obtain plasma. 200 μl of the plasma sample was placed in a 96-well black microplate and the fluorescence of doxorubicin was measured at 485/590 nm. The reference was fresh plasma and the fluorescence was measured in the same manner.

[3] = biological target: T1, human serum albumin (HSA) (Homo sapiens, UniProt P02768); test: Conjugate binding with human serum albumin, HPLC analysis
T1 construct: purchased Sigma-Aldrich
Protocol: The maleimide-KGDEVD-PABC-doxorubicin synthesized in Example 1 was then added to a concentration of 100 μM and incubated at room temperature. The samples were analyzed by analytical HPLC (FIG. 1). (KGDEVD corresponds to SEQ ID NO: 32)

[4] = test system: tumor cell lines with KRAS variant genotype; test: Concentration-dependent cytotoxicity by MTT analysis; assay type: cell-based; settings: KRAS variant cells
[5] = test system: cell lines with KRAS variant genotype (Mia-paca2, AsPC1, MDA-MB231, CT26, HCT116, H2122, A549); test: Tumor growth in mice inoculated with wild-type KRAS or KRAS variant tumor cells; assay type: in vivo, C3H/HeN mice; settings: intravenous every 3 days, equivalent to 1, 5 and 10 mg/kg doxorubicin, 1 month
Protocol: The maleimide-KGDEVD-PABC-doxorubicin was administered intravenously every 3 days at doses equivalent to 1, 5, and 10 mg/kg of doxorubicin, respectively, and then observed for 1 month. […] Therefore, the prodrug conjugate according to one embodiment of the present invention is not expected to have significant side effects.

[6] = test system: cancer cell groups with PTEN protein loss genotype (H1299, MDA-MB436); test: Tumor growth in mice inoculated with PTEN protein loss tumor cells; assay type: in vivo, C3H/HeN mice; settings: intravenous every 3 days, equivalent to 1, 5 and 10 mg/kg doxorubicin, 1 month; compared to the control group
Protocol: The maleimide-KGDEVD-PABC-doxorubicin was administered intravenously every 3 days at concentrations equivalent to 1, 5, and 10 mg/kg of doxorubicin, respectively, and observed for 1 month.

[7] = test system: tumor cell lines with wild-type KRAS genotype; test: Concentration-dependent cytotoxicity by MTT analysis; assay type: cell-based; settings: wild-type KRAS cells, concentrations up to 100 μM
[8] = biological target: T2, serum albumin in human blood (human plasma sample) (Homo sapiens, UniProt P02768); test: Conjugate binding with serum albumin in human plasma, HPLC analysis
T2 construct: from tissue; host or cells: human plasma
Protocol: The conjugation binding of maleimide-KGDEVD-PABC-doxorubicin with HSA was completed in 3 min. However, when plasma was pre-incubated with 4-maleimidobutyric acid which has a thiol-bound maleimide functional group, prior to incubation with maleimide-KGDEVD-PABC-doxorubicin no, binding of maleimide-KGDEVD-PABC-doxorubicin to plasma was observed even after 1 h as in the previous experiment conducted with serum.

[9] = test system: tumor cell lines with PTEN protein loss genotype; test: Concentration-dependent cytotoxicity by MTT analysis; assay type: cell-based; settings: PTEN protein loss cells, up to 100 μM
[10] = test system: tumor cells having KRAS variant genotype (Mia-paca2); test: Tumor inhibition compared with Aldoxorubicin in mice implanted with KRAS variant tumor cells; assay type: in vivo, C3H/HeN mice; settings: Mia-paca2, intravenous every 3 days, equivalent to 5 mg/kg doxorubicin, 1 month
Text: Using C3H/HeN mice implanted with tumor cells having KRAS variant genotype (Mia-paca2), the tumor inhibition effect of the maleimide-KGDEVD-PABC-doxorubicin (MPD1) synthesized in Example 1 of the present invention, the maleimide-KGDVED-PABC-doxorubicin (EMC-KGDVED-DOX) with different peptide sequence, and Aldoxorubicin, a conventional doxorubicin-based anticancer drug which is linked to a maleimide so that it binds to albumin in plasma upon administration and increases half-life, were compared (FIGS. 19 and 20).

[11] = test system: tumor cell lines with wild-type PTEN protein genotype; test: Concentration-dependent cytotoxicity by MTT analysis; assay type: cell-based; settings: PTEN wild-type cells, up to 100 μM
[12] = biological target: HSA-maleimide-KGDEVD-PABC-doxorubicin, P02768
[13] = biological target: HSA-Maleimide-KGDVED-PABC-doxorubicin, P02768

## COc1cccc2c1C(=O)c1c(O)c3c(c(O)c1C2=O)C[C@@](O)(C(=O)CO)C[C@@H]3O[C@H]1C[C@H](NC(=O)OCc2ccc(NC(=O)[C@H](CC(=O)O)NC(=O)[C@@H](NC(=O)[C@H](CCC(=O)O)NC(=O)[C@H](CC(=O)O)NC(=O)CNC(=O)[C@H](CCCCN)NC(C)=O)C(C)C)cc2)[C@H](O)[C@H](C)O1 [AcKGDEVD-PABC-doxorubicin, Ac-Lys-Gly-Asp-Glu-Val-Asp-PABC-DOX, reference compound] (Ac-KGDEVD[PABC]-{Doxorubicin(3'-N)})
[1]
  time until plasma concentration decreased below the detection limit of 5 ng/ml: ≤ 6 h

## COc1cccc2c1C(=O)c1c(O)c3c(c(O)c1C2=O)C[C@@](O)(C(=O)CO)C[C@@H]3O[C@H]1C[C@H](NC(=O)OCc2ccc(NC(=O)[C@H](CC(=O)O)NC(=O)[C@@H](NC(=O)[C@H](CCC(=O)O)NC(=O)[C@H](CC(=O)O)NC(=O)CNC(=O)[C@H](CCCCNC(=O)CCCCCN3C(=O)C=CC3=O)NC(C)=O)C(C)C)cc2)[C@H](O)[C@H](C)O1 [maleimide-KGDEVD-PABC-doxorubicin, Ac-Lys(EMC)-Gly-Asp-Glu-Val-Asp-PABC-DOX] (Ac-K(Hexanoyl(6-maleimido))GDEVD[PABC]-{Doxorubicin(3'-N)})
[2]; read-out: half-life
  half-life: > 19 h
[2]; read-out: terminal half-life
  half-life: 0.5 h
[2]; intravenous
  time remained active in plasma after administration: 6 days
  time until plasma concentrations decreased below the detection limit of 5 ng/ml: ≤ 4 h
[3]; HSA 700 μM in PBS, conjugate 100 μM, room temperature
  time to complete conjugate binding with HSA: 3 min
[3]; HSA pre-incubated with 4-maleimidobutyric acid, after 1 h
  binding to HSA pre-incubated with 4-maleimidobutyric acid: no binding
[4]
  IC50: lower
[5]; KRAS variant versus wild-type KRAS tumors
  tumor growth inhibition: better tumor growth inhibition than those with wild-type KRAS genotype
[5]; wild-type KRAS and KRAS variant tumors
  effect on body weight of the experimental animals: none of the drugs had a significant effect on the body weight
[6]
  tumor inhibition: greater tumor inhibition
[7]
  IC50: generally higher
[8]; human plasma, conjugate 100 μM, room temperature
  time to complete conjugation binding with HSA in human plasma: 3 min
[8]; plasma pre-incubated with 4-maleimidobutyric acid, after 1 h
  binding to plasma pre-incubated with 4-maleimidobutyric acid: no, binding
[9]
  IC50 values based on doxorubicin: higher IC50 values
[1]; cynomolgus monkey, in vivo, read-out: terminal half-life
  half-life: > 106 h
[1]
  time detectable in plasma after administration: 7 days
[10]
  in vivo anticancer effects (tumor inhibition): anticancer effects similar to those of Aldoxorubicin
[11]
  IC50 values based on doxorubicin: lower IC50 values

B1: recombinant human caspase-3 (protein)
chain: SGISLDNSYKMDYPEMGLCIIINNKNFHKSTGMTSRSGTDVDAANLRETFRNLKYEVRNKNDLTREEIVELMRDVSKEDHSKRSSFVCVLLSHGEEGIIFGTNGPVDLKKITNFFRGDRCRSLTGKPKLFIIQACRGTELDCGIETDSGVDDDMACHKIPVEADFLYAYSTAPGYYSWRNSKDGSWFIQSLCAMLKQYADKLEFMHILTRVNRKVATEFESFSFDATFHAKKQIPCIVSMLTKELYFYH
[12]
  cleavage and release of doxorubicin, HPLC: Doxorubicin was cleaved and isolated from the HSA-maleimide-KGDEVD-PABC-doxorubicin conjugate within 1 h
[13]
  cleavage and release of doxorubicin, HPLC: no cleavage was observed for the HSA-Maleimide-KGDVED-PABC-doxorubicin conjugate with a different peptide amino acid sequence

Source: US20250302981A1, “NOVEL USE OF ANTICANCER AGENT PRODRUG CONJUGATE” (UNIVERSITY OF ULSAN FOUNDATION FOR INDUSTRY COOPERATION, priority 2020, published 2025)
